From PMC11149917, “Translational and Therapeutic Evaluation of RAS-GTP Inhibition by RMC-6236 in RAS-Driven Cancers” (Cancer Discovery, 2024)
Read-outs that look alike come from different tables or passages of the source.

Experiment: Mouse blood and tissue PK (LC/MS-MS)
Type: in vivo
Details: for AUC(0-t): read-out: Blood AUClast
Protocol: For single-dose PKPD study, mice were randomized and assigned into groups (n = 3/dose/time point). […] Blood and tissues, including the tumor, brain, colon, ear skin, and muscle, were harvested at indicated time points. […] The whole blood, tumor, brain, colon, and ear skin concentrations of RMC-6236 were determined using liquid chromatography–tandem mass spectrometry (LC/MS-MS) methods. […] After thorough mixing and centrifugation, the supernatant was diluted with water or directly analyzed on a Sciex 5500 or Sciex 6500+ triple quadrupole mass spectrometer equipped with an ACQUITY or Shimadzu UPLC system. […] Bioanalysis on blood and tissue samples from xenograft models was run at Pharmaron and Wuxi AppTec. Concentrations reported as below the quantification limit were treated as zero for PK analysis. PK parameters were calculated by noncompartmental analysis of the concentration–time profiles using Phoenix WinNonLin (version 8.3 Certara). Apparent terminal elimination half-life (t1/2) values were calculated as ln(2)/k, where k represents the terminal elimination rate constant. Area under the concentration–time curve (AUC) values were estimated using a linear trapezoidal method. AUClast values were calculated from the dosing time to the last quantifiable concentration. Maximum concentration (Cmax) was recorded as observed.

[1] = mouse, whole blood, oral, 10 mg/kg, Model Validation Dataset, 10mg/kg_study6, read-out: Blood Concentration
[2] = mouse, whole blood, oral, 25 mg/kg, Model Development Dataset, 25mg/kg_study8, read-out: Blood Concentration
[3] = mouse, whole blood, oral, 25 mg/kg, Model Development Dataset, 25mg/kg_study8r (doses every 24 h, 0-[…])
[4] = mouse, whole blood, oral, 25 mg/kg, Model Validation Dataset, 25mg/kg_study6, read-out: Blood Concentration
[5] = mouse, whole blood, oral, 40 mg/kg, Model Development Dataset, 40mg/kg_study8, read-out: Blood Concentration
[6] = mouse, whole blood, oral, 40 mg/kg, Model Development Dataset, 40mg/kg_study8r (doses every 24 h, 0-[…])
[7] = mouse, whole blood, oral, 50 mg/kg, Model Validation Dataset, 50mg/kg_study6, read-out: Blood Concentration
[8] = mouse, whole blood, po, 1 mg/kg, NCI-H441 #1 (1 mg/kg), QD x 28 days
[9] = mouse, whole blood, po, 3 mg/kg, NCI-H441 (3 mg/kg), single dose
[10] = mouse, whole blood, po, 5 mg/kg, NCI-H441 #1 (5 mg/kg), QD x 28 days
[11] = mouse, whole blood, po, 10 mg/kg, NCI-H441 #1 (10 mg/kg), QD x 28 days
[12] = mouse, whole blood, po, 10 mg/kg, NCI-H441 (10 mg/kg), single dose
[13] = mouse, whole blood, po, 25 mg/kg, HPAC (25 mg/kg), single dose
[14] = mouse, whole blood, po, 25 mg/kg, KP-4 (25 mg/kg), single dose
[15] = mouse, whole blood, po, 25 mg/kg, NCI-H358 (25 mg/kg), single dose
[16] = mouse, whole blood, po, 25 mg/kg, NCI-H441 #1 (25 mg/kg), QD x 28 days
[17] = mouse, whole blood, po, 25 mg/kg, NCI-H441 #2 (25 mg/kg), QD x 10 days
[18] = mouse, whole blood, po, 25 mg/kg, NCI-H441 (25 mg/kg), single dose
[19] = mouse, whole blood, po, 25 mg/kg, NCI-H2122 (25 mg/kg), single dose

## CCn1c(-c2cc(N3CCN(C)CC3)cnc2[C@H](C)OC)c2c3cc(ccc31)-c1csc(n1)C[C@H](NC(=O)[C@H]1C[C@@H]1C)C(=O)N1CCC[C@H](N1)C(=O)OCC(C)(C)C2 [RMC-6236]
mouse, tumor, oral, 50 mg/kg, Model Validation Dataset, 50mg/kg_study6, 24 h, read-out: Tumor Concentration
  concentration at 24 h: 2100 nM
mouse, tumor, oral, 50 mg/kg, Model Validation Dataset, 50mg/kg_study6, 48 h, read-out: Tumor Concentration
  concentration at 48 h: 1240 nM
mouse, tumor, oral, 50 mg/kg, Model Validation Dataset, 50mg/kg_study6, 72 h
  concentration at 72 h: 621 nM
mouse, tumor, oral, 50 mg/kg, NCI-H441 xenograft tumor, study NCI-H441#6, 50 mg/kg, 8h, read-out: RMC-6236 (nM) Tumor
  concentration at 8 h: 4770 nM
mouse, tumor, oral, 50 mg/kg, NCI-H441 xenograft tumor, study NCI-H441#6, 50 mg/kg, 24h, read-out: RMC-6236 (nM) Tumor
  concentration at 24 h: 1960 nM
mouse, tumor, oral, 100 mg/kg, KP-4, study KP-4 #4, 100 mg/kg, 8h, read-out: RMC-6236 (nM) Tumor
  concentration at 8 h: 10200 nM
mouse, tumor, oral, 100 mg/kg, KP-4, study KP-4 #4, 100 mg/kg, 24h, read-out: RMC-6236 (nM) Tumor
  concentration at 24 h: 7000 nM
mouse, tumor, oral, 100 mg/kg, NCI-H441 xenograft tumor, study NCI-H441#6, 100 mg/kg, 24h, read-out: RMC-6236 (nM) Tumor
  concentration at 24 h: 3020 nM
mouse, tumor, oral, 100 mg/kg, NCI-H441 xenograft tumor, study NCI-H441#6, 100 mg/kg, 48h, read-out: RMC-6236 (nM) Tumor
  concentration at 48 h: 2060 nM
mouse, tumor, po, 3 mg/kg, NCI-H441 (3 mg/kg), single dose, read-out: Tumor t1/2 (converted)
  half-life: 17.1 h
mouse, tumor, po, 25 mg/kg, HPAC (25 mg/kg), single dose, read-out: Tumor t1/2 (converted)
  half-life: 14 h
mouse, tumor, po, 25 mg/kg, KP-4 (25 mg/kg), single dose, read-out: Tumor t1/2 (converted)
  half-life: 11.3 h
mouse, tumor, po, 25 mg/kg, NCI-H358 (25 mg/kg), single dose, read-out: Tumor t1/2 (converted)
  half-life: 10.2 h
mouse, tumor, po, 25 mg/kg, NCI-H441 (25 mg/kg), single dose, read-out: Tumor t1/2 (converted)
  half-life: 46.1 h
mouse, whole blood, oral, 10 mg/kg, Model Validation Dataset, 10mg/kg_study6
  concentration at 0.5 h: 435 nM
[1]
  concentration at 1 h: 642 nM
  concentration at 2 h: 642 nM
  concentration at 4 h: 441 nM
mouse, whole blood, oral, 10 mg/kg, Model Validation Dataset, 10mg/kg_study6, 8 h, read-out: Blood Concentration
  concentration at 8 h: 309 nM
mouse, whole blood, oral, 10 mg/kg, Model Validation Dataset, 10mg/kg_study6, 24 h, read-out: Blood Concentration
  concentration at 24 h: 3.91 nM
mouse, whole blood, oral, 10 mg/kg, Naïve Mice #1 (10 mg/kg), single dose
  Cmax: 744 ng/mL
mouse, whole blood, oral, 25 mg/kg, Model Development Dataset, 25mg/kg_study8
  concentration at 0.5 h: 806 nM
[2]
  concentration at 1 h: 979 nM
  concentration at 2 h: 1410 nM
  concentration at 4 h: 1430 nM
mouse, whole blood, oral, 25 mg/kg, Model Development Dataset, 25mg/kg_study8, 8 h, read-out: Blood Concentration
  concentration at 8 h: 802 nM
mouse, whole blood, oral, 25 mg/kg, Model Development Dataset, 25mg/kg_study8, 24 h, read-out: Blood Concentration
  concentration at 24 h: 7.71 nM
[3]
  concentration at 216.5 h: 1180 nM
  concentration at 220 h: 849 nM
mouse, whole blood, oral, 25 mg/kg, Model Development Dataset, 25mg/kg_study8r (doses every 24 h, 0-[…]), read-out: Blood Concentration
  concentration at 240 h: 5.4 nM
mouse, whole blood, oral, 25 mg/kg, Model Validation Dataset, 25mg/kg_study6
  concentration at 0.5 h: 598 nM
[4]
  concentration at 1 h: 885 nM
  concentration at 2 h: 1540 nM
  concentration at 4 h: 1140 nM
mouse, whole blood, oral, 25 mg/kg, Model Validation Dataset, 25mg/kg_study6, 8 h, read-out: Blood Concentration
  concentration at 8 h: 755 nM
mouse, whole blood, oral, 25 mg/kg, Model Validation Dataset, 25mg/kg_study6, 24 h, read-out: Blood Concentration
  concentration at 24 h: 15.6 nM
mouse, whole blood, oral, 40 mg/kg, Model Development Dataset, 40mg/kg_study8
  concentration at 0.5 h: 1320 nM
[5]
  concentration at 1 h: 1580 nM
  concentration at 2 h: 2770 nM
  concentration at 4 h: 1480 nM
mouse, whole blood, oral, 40 mg/kg, Model Development Dataset, 40mg/kg_study8, 8 h, read-out: Blood Concentration
  concentration at 8 h: 1200 nM
mouse, whole blood, oral, 40 mg/kg, Model Development Dataset, 40mg/kg_study8, 24 h, read-out: Blood Concentration
  concentration at 24 h: 8 nM
[6]
  concentration at 216.5 h: 1760 nM
  concentration at 220 h: 1550 nM
mouse, whole blood, oral, 40 mg/kg, Model Development Dataset, 40mg/kg_study8r (doses every 24 h, 0-[…]), read-out: Blood Concentration
  concentration at 240 h: 7.54 nM
mouse, whole blood, oral, 50 mg/kg, Model Validation Dataset, 50mg/kg_study6
  concentration at 0.5 h: 1420 nM
[7]
  concentration at 1 h: 1820 nM
  concentration at 2 h: 2770 nM
  concentration at 4 h: 1980 nM
mouse, whole blood, oral, 50 mg/kg, Model Validation Dataset, 50mg/kg_study6, 8 h, read-out: Blood Concentration
  concentration at 8 h: 1350 nM
mouse, whole blood, oral, 50 mg/kg, Model Validation Dataset, 50mg/kg_study6, 24 h, read-out: Blood Concentration
  concentration at 24 h: 22.4 nM
mouse, whole blood, oral, 50 mg/kg, Model Validation Dataset, 50mg/kg_study6, 48 h, read-out: Blood Concentration
  concentration at 48 h: 2.76 nM
mouse, whole blood, oral, 50 mg/kg, Naïve Mice #1 (50 mg/kg), single dose
  Cmax: 2960 ng/mL
[8]
  Cmax: 79.2 ng/mL
  AUC(0-t): 384 ng·h/mL
mouse, whole blood, po, 1 mg/kg, NCI-H441 #1 (1 mg/kg), QD x 28 days, read-out: Blood t1/2 (converted)
  half-life: 2.9 h
[9]
  Cmax: 219 ng/mL
  AUC(0-t): 1180 ng·h/mL
[10]
  Cmax: 286 ng/mL
  AUC(0-t): 1330 ng·h/mL
mouse, whole blood, po, 5 mg/kg, NCI-H441 #1 (5 mg/kg), QD x 28 days, read-out: Blood t1/2 (converted)
  half-life: 4.09 h
[11]
  Cmax: 533 ng/mL
  AUC(0-t): 2780 ng·h/mL
mouse, whole blood, po, 10 mg/kg, NCI-H441 #1 (10 mg/kg), QD x 28 days, read-out: Blood t1/2 (converted)
  half-life: 3.22 h
[12]
  Cmax: 520 ng/mL
  AUC(0-t): 3810 ng·h/mL
mouse, whole blood, po, 10 mg/kg, NCI-H441 (10 mg/kg), single dose, read-out: Blood t1/2 (converted)
  half-life: 2.93 h
[13]
  Cmax: 1310 ng/mL
  AUC(0-t): 12000 ng·h/mL
mouse, whole blood, po, 25 mg/kg, HPAC (25 mg/kg), single dose, read-out: Blood t1/2 (converted)
  half-life: 2.62 h
[14]
  Cmax: 1460 ng/mL
  AUC(0-t): 12500 ng·h/mL
mouse, whole blood, po, 25 mg/kg, KP-4 (25 mg/kg), single dose, read-out: Blood t1/2 (converted)
  half-life: 2.61 h
[15]
  Cmax: 1150 ng/mL
  AUC(0-t): 8720 ng·h/mL
mouse, whole blood, po, 25 mg/kg, NCI-H358 (25 mg/kg), single dose, read-out: Blood t1/2 (converted)
  half-life: 2.78 h
[16]
  Cmax: 1250 ng/mL
  AUC(0-t): 6950 ng·h/mL
mouse, whole blood, po, 25 mg/kg, NCI-H441 #1 (25 mg/kg), QD x 28 days, read-out: Blood t1/2 (converted)
  half-life: 3.46 h
[17]
  Cmax: 1080 ng/mL
  AUC(0-t): 6660 ng·h/mL
mouse, whole blood, po, 25 mg/kg, NCI-H441 #2 (25 mg/kg), QD x 10 days, read-out: Blood t1/2 (converted)
  half-life: 2.67 h
[18]
  Cmax: 1250 ng/mL
  AUC(0-t): 9060 ng·h/mL
mouse, whole blood, po, 25 mg/kg, NCI-H441 (25 mg/kg), single dose, read-out: Blood t1/2 (converted)
  half-life: 3.11 h
[19]
  Cmax: 1110 ng/mL
  AUC(0-t): 7930 ng·h/mL
mouse, whole blood, po, 25 mg/kg, NCI-H2122 (25 mg/kg), single dose, read-out: Blood t1/2 (converted)
  half-life: 4.5 h
Sheet Ear Skin, model Capan-2, study Capan-2 #3_PHA 2023, 3 mg/kg, 48h
  RMC-6236 (nM) Tumor: BQL
Sheet colon, Capan-2, Capan-2 #3_PHA 2023, 3 mg/kg, 24h
  RMC-6236 (nM) Tumor: BQL
Sheet colon, Capan-2, Capan-2 #3_PHA 2023, 3 mg/kg, 48h
  RMC-6236 (nM) Tumor: BQL
Sheet colon, Capan-2, Capan-2 #3_PHA 2023, 10 mg/kg, 48h
  RMC-6236 (nM) Tumor: BQL
Sheet colon, Capan-2, Capan-2 #3_PHA 2023, 25 mg/kg, 48h
  RMC-6236 (nM) Tumor: BQL
Sheet colon, Capan-2, Capan-2 #3_PHA 2023, 50 mg/kg, 48h
  RMC-6236 (nM) Tumor: BQL
Sheet colon, Capan-2, Capan-2 #3_PHA 2023, 100 mg/kg, 48h
  RMC-6236 (nM) Tumor: BQL
Sheet colon, KP-4, KP-4 #5, 25 mg/kg, 48h
  RMC-6236 (nM) Tumor: BQL
